Data reported in paper PMC7311426, “An amphipathic peptide with antibiotic activity against multidrug-resistant Gram-negative bacteria” (Nature Communications, 2020).
Residues, ends and D or L forms follow the SMILES beside them.

Key:
[1] = Intravenous pharmacokinetics; conditions: for Nonlin fit of XY (Prism), mouse i.v. bolus / level at 1.23 h / level at 2 h / level at 3 h / level at 4 h / level at 8 h / level at 0.08 h / level at 0.5 h / level at 1 h / level at 24 h: Cross species PK; for Nonlin fit of XY (Prism), mouse i.v. bolus: fitted curve; for level at 1.23 h / level at 2 h / level at 3 h / level at 4 h / level at 8 h / level at 0.08 h / level at 0.5 h / level at 1 h / level at 24 h: concentration (Fig 6 source data)
Method: The studies were performed at Fidelta Ltd, Croatia (mice), under review by the institutional ethics committee (CARE-Zg), and Covance Laboratories UK and Muenster Germany (cynomolgus monkey and minipig) in accordance with the requirements of the Animals (Scientific Procedures) Act 1989 and a maintained local ethical review. All studies were contracted by Adenium Biotech ApS. Mice were housed in polysulfone cages with an acclimatization period of 7 days prior to experiments with air temperature maintained at 22 °C with 55% humidity and light–dark cycles of 12 h light. Cynomolgus monkeys of age range 4–7 years were selected, tested for health, acclimatized for 2 weeks, and housed in single-animal climate controlled stainless-steel cages with a minimum of 8 air changes per hour with air temperature at 19–25 °C and relative humidity 40–70%, and light–dark cycles of 12 h light. Minipigs of age range 4–6 months were selected, tested for health, acclimatized for 2 weeks, and housed in single-animal pens with 15–20 air changes per hour with air temperature at 22–26 °C with light–dark cycles of 12 h light.
Mouse i.v. injection: A formulation of AA139 in Ringer’s acetate pH 6.0 (1 mg mL^−1) was administered to male CD1 mice (Charles River, Italy) at 10 mg kg^−1 as a 400 μL slow injection into the lateral tail vein. Blood samples were collected from the jugular vein at eight timepoints (n = 3 mice): 0.08, 0.25, 0.5, 1, 2, 4, 8, and 24 h. AA139 was quantified in plasma using solid phase extraction (SPE) followed by liquid chromatography with tandem mass spectrometric detection (LC–MS/MS). Pharmacokinetic analysis was performed using Phoenix WinNonlin 6.2. (Pharsight Corporation) software using individual animal data, non-compartmental sparse analysis, and the actual dose as determined from formulation analysis by UPLC.
Mouse, monkey, and minipig i.v. 2-h infusion: AA139 formulated in Ringer’s acetate was administered intravenously to CD1 mice, cynomolgus monkeys (Macaca fascicularis) and Göttingen A/S minipigs (Ellegaard Göttingen, Denmark) by continuous infusion over 2 h (minipig under anesthesia). Individual dose volumes were based on individual body weight. Blood samples were collected at 0.5, 1, 2, 3, 4, 8, 10, and 12 h after the start of the infusion (n = 6 mice, male and female combined; n = 2 monkeys, one male and one female; n = 2 minipigs, one male and one female). Bioanalytical analysis was performed by SPE followed by LC–MS/MS. The method was validated for an AA139 concentration range of 43.4–21,700 ng mL^−1. Pharmacokinetic parameters were calculated by standard non-compartmental analysis (NCA) using Phoenix WinNonlin version 6.2. The studies were conducted in compliance with Good Laboratory Practice (GLP) regulations.

in vivo = conditions: mouse, ip, Cross species PK, concentration (Fig 6 source data)
[2] = both, CD1, mouse, in vivo, iv, 10 mg kg-1
[3] = both, CD1, mouse, in vivo, iv, mouse 2h i.v. infusion, replicate 1
[4] = both, CD1, mouse, in vivo, iv, mouse 2h i.v. infusion, replicate 2
[5] = both, CD1, mouse, in vivo, iv, mouse 2h i.v. infusion, replicate 3
[6] = male, CD1, mouse, in vivo, iv, 10 mg kg-1
[7] = male, CD1, mouse, in vivo, iv, 10 mg/kg, mouse i.v. bolus, replicate 1
[8] = male, CD1, mouse, in vivo, iv, 10 mg/kg, mouse i.v. bolus, replicate 2
[9] = male, CD1, mouse, in vivo, iv, 10 mg/kg, mouse i.v. bolus, replicate 3

In the case of `CC(C)[C@@H]1NC(=O)[C@H](Cc2ccc(O)cc2)NC(=O)[C@H](Cc2c[nH]c3ccccc23)NC(=O)[C@@H](NC(=O)[C@H](Cc2ccccc2)NC(=O)CN)CSSC[C@@H](C(=O)N[C@@H](CC(N)=O)C(=O)O)NC(=O)[C@H](CCCNC(=N)N)NC(=O)[C@H](CCCNC(=N)N)NC(=O)[C@H](Cc2ccc(O)cc2)NC(=O)[C@@H]2CSSC[C@H](NC1=O)C(=O)N[C@@H](C)C(=O)N[C@@H](CCCNC(=N)N)C(=O)N[C@@H](CCCNC(=N)N)C(=O)N[C@@H](CC(N)=O)C(=O)NCC(=O)N[C@@H](C)C(=O)N[C@@H](CCCNC(=N)N)C(=O)N[C@@H](C(C)C)C(=O)N2` [AA139] (HELM PEPTIDE1{G.F.C.W.Y.V.C.A.R.R.N.G.A.R.V.C.Y.R.R.C.N}$PEPTIDE1,PEPTIDE1,3:R3-20:R3|PEPTIDE1,PEPTIDE1,7:R3-16:R3$$$V2.0), the “Nonlin fit of XY (Prism), mouse i.v. bolus” value (from here on “Nonlin fit of XY (Prism)”) ([1]; Time 19.1952 h) is reported as 546.556, the “Nonlin fit of XY (Prism)” value ([1]; Time 20.1802 h) is reported as 523.855 and the “Nonlin fit of XY (Prism)” value ([1]; Time 23.952 h) is reported as 452.817. The AUC(0-inf) [1, 2] was 14000 ng·h/mL, the half-life [1, 2] was 2.9 h and the level at 1.23 h [1, 3] was 4540 ng/mL. For the same molecule, the level at 1.23 h [1, 4] was 4960 ng/mL, the level at 1.23 h [1, 5] was 4090 ng/mL and the level at 2 h [1, 3] was 8160 ng/mL. For the same molecule, the level at 2 h [1, 4] was 8010 ng/mL, the level at 2 h [1, 5] was 3870 ng/mL and the level at 3 h [1, 3] was 3530 ng/mL. The level at 3 h [1, 4] was 3750 ng/mL, the level at 3 h [1, 5] was 1420 ng/mL and the level at 4 h [1, 3] was 1350 ng/mL. For the same molecule, the level at 4 h [1, 4] was 1140 ng/mL, the level at 4 h [1, 5] was 1490 ng/mL and the level at 8 h [1, 3] was 110 ng/mL. The level at 8 h [1, 4] was 216 ng/mL, the level at 8 h [1, 5] was 178 ng/mL and the “Clearance relative to rate of liver blood flow” value ([1]; i.v., mice, cynomolgus monkeys and minipigs) was ~ 20%. It also gave a half-life ([1]; i.v., mice, cynomolgus monkeys and minipigs, bi-exponential elimination) of 2 to 4 h, an AUC(0-inf) [1, 6] of 24900 ng·h/mL and a Vd [1, 6] of 0.91 L/kg. The half-life [1, 6] was 3.2 h, the Cmax ([1]; male, CD1, mouse, in vivo, iv, 10 mg/kg) was 16200 ng/mL and the level at 0.08 h [1, 7] was 14900 ng/mL. It also gave a level at 0.08 h [1, 8] of 10800 ng/mL, a level at 0.08 h [1, 9] of 13200 ng/mL and a level at 0.5 h [1, 7] of 8770 ng/mL. For the same molecule, the level at 0.5 h [1, 8] was 8380 ng/mL, the level at 0.5 h [1, 9] was 6290 ng/mL and the level at 1 h [1, 7] was 7140 ng/mL. For the same molecule, the level at 1 h [1, 8] was 5150 ng/mL, the level at 1 h [1, 9] was 3780 ng/mL and the level at 2 h [1, 7] was 5140 ng/mL. For the same molecule, the level at 2 h [1, 8] was 2960 ng/mL, the level at 2 h [1, 9] was 3850 ng/mL and the level at 4 h [1, 7] was 1600 ng/mL. It also gave a level at 4 h [1, 8] of 1470 ng/mL, a level at 4 h [1, 9] of 1500 ng/mL and a level at 8 h [1, 7] of 402 ng/mL. The level at 8 h [1, 8] was 388 ng/mL, the level at 8 h [1, 9] was 472 ng/mL and the level at 24 h [1, 7] was 48 ng/mL. The level at 24 h [1, 8] was 32 ng/mL, the level at 24 h [1, 9] was 31 ng/mL and the “Cross species PK, concentration (Fig 6 source data)” value (“Cross species PK, concentration” for short) ([1]; mouse 2h i.v. infusion, time 10 h, replicate 1) was 88. The “Cross species PK, concentration” value ([1]; mouse 2h i.v. infusion, time 10 h, replicate 2) was 124, the “Cross species PK, concentration” value ([1]; mouse 2h i.v. infusion, time 10 h, replicate 3) was 134 and the “Cross species PK, concentration” value ([1]; mouse 2h i.v. infusion, time 12 h, replicate 1) was 72.4. The “Cross species PK, concentration” value ([1]; mouse 2h i.v. infusion, time 12 h, replicate 2) was 93.8, the “Cross species PK, concentration” value ([1]; mouse 2h i.v. infusion, time 12 h, replicate 3) was 62.7 and the level at 1 h (in vivo; replicate 1) was 5200 ng/mL. It also gave a level at 1 h (in vivo; replicate 2) of 5250 ng/mL, a level at 1 h (in vivo; replicate 3) of 5230 ng/mL and a level at 2 h (in vivo; replicate 1) of 4240 ng/mL. For the same molecule, the level at 2 h (in vivo; replicate 2) was 4550 ng/mL, the level at 2 h (in vivo; replicate 3) was 4140 ng/mL and the level at 4 h (in vivo; replicate 1) was 1820 ng/mL. For the same molecule, the level at 4 h (in vivo; replicate 2) was 1560 ng/mL, the level at 4 h (in vivo; replicate 3) was 1370 ng/mL and the level at 8 h (in vivo; replicate 1) was 570 ng/mL. The level at 8 h (in vivo; replicate 2) was 472 ng/mL and the level at 8 h (in vivo; replicate 3) was 682 ng/mL.
